Results from ChEMBL document CHEMBL1201862, “PubChem BioAssay data set” (2004).
Activity calls are given as the source filed them.

Legend:
[1] = biological target: G-protein coupled receptor 55 (Homo sapiens, UniProt Q9Y2T6); assay: GPR55 antagonists blocking LPI-driven arrestin recruitment, primary screen, imaging, U2OS, beta-arrestin-GFP, LPI agonist (AID 2013); type: functional;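 further: antagonist potency measured as reduced agonist-driven arrestin aggregation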
[2] = mammalian cell cytotoxicity, dose response, cytotoxicity control, plate reader, cherry-pick samples (AID 504397); type: functional, cell-based
[3] = biological target: T1, Heat shock factor protein 1 (Mus musculus, UniProt P38532); assay: inhibition of MG132-induced HSE-luciferase signal, confirmation, cell-based, NIH3T3, luminescence, dose retest (AID 2382); type: functional;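 further: NIH3T3 fibroblasts with HSF1-driven luciferase reporter stressed by proteasome inhibitor MG132; luminescence from HSF1-driven luciferase expression after 8 hours of MG132 stress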
T1 sequence (P38532 whole entry): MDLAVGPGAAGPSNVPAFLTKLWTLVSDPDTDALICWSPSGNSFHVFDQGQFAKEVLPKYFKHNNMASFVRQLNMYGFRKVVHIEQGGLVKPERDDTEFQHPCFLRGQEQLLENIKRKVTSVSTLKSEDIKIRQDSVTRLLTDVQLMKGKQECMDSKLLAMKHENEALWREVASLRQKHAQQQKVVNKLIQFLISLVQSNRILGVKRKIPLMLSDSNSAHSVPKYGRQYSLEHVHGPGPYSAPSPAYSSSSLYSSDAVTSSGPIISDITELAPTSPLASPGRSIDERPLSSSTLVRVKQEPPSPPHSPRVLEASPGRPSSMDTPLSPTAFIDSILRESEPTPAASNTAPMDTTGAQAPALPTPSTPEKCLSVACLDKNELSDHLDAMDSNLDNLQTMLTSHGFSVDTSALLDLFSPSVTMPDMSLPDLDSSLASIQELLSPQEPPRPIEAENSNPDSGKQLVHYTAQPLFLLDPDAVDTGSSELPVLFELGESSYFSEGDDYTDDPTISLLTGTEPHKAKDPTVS

X-box-binding protein 1 = X-box-binding protein 1 (Homo sapiens, UniProt P17861); type: functional, Cricetulus griseus;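 further: confirmatory dose-response counter-screen serving a CHOP assay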
Sequence of X-box-binding protein 1 (P17861 whole entry): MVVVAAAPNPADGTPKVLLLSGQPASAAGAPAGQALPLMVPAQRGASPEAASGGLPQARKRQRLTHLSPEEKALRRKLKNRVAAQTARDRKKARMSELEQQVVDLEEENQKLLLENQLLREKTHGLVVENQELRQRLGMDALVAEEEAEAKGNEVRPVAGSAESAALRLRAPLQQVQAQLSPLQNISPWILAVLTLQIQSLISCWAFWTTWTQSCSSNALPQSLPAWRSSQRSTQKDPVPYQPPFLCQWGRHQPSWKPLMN

[4] = biological target: DNA dC->dU-editing enzyme APOBEC-3G (Homo sapiens, UniProt Q9HC16); type: functional;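 further: Dose-response counterscreen measuring inhibition of APOBEC3G DNA deaminase activity, run while confirming APOBEC3A inhibitors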
Sequence of DNA dC->dU-editing enzyme APOBEC-3G (Q9HC16 whole entry): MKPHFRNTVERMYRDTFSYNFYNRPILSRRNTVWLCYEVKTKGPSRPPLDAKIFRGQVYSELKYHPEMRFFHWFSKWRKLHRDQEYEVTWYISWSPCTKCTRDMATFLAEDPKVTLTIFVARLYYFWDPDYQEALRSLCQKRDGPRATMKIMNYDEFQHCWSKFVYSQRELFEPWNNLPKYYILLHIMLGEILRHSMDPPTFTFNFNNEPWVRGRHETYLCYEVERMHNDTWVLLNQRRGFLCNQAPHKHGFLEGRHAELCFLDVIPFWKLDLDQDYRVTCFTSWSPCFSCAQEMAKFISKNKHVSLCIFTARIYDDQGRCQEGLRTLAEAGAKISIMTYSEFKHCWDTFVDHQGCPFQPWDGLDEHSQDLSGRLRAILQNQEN

[5] = biological target: DNA dC->dU-editing enzyme APOBEC-3A (Homo sapiens, UniProt P31941); assay: Dose Response confirmation of small molecule APOBEC3A DNA Deaminase Inhibitors via a fluorescence-based single-stranded DNA deaminase assay. [Related pubchem assays (depositor defined):AID493011, AID493024]; type: functional
Sequence of DNA dC->dU-editing enzyme APOBEC-3A (P31941 whole entry): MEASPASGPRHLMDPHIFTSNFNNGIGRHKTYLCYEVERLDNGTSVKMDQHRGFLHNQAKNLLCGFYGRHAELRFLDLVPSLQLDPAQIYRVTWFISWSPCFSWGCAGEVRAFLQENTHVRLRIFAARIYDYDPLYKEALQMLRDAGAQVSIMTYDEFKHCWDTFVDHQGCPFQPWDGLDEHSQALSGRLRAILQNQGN

[6] = biological target: Eukaryotic translation initiation factor 4E (Mus musculus, UniProt P63073); assay: eIF4E–eIF4G protein interaction inhibitors, dose response, biochemical, TR-FRET (AID 855); type: functional;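 further: potency for disrupting eIF4E binding to eIF4GI seen as loss of FRET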
Large T antigen = Large T antigen (Simian virus 40, UniProt P03070); type: functional, Betapolyomavirus macacae;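 further: Confirmatory-stage PubChem screen for compounds that inhibit SV40 T antigen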
Sequence of Large T antigen (P03070 whole entry): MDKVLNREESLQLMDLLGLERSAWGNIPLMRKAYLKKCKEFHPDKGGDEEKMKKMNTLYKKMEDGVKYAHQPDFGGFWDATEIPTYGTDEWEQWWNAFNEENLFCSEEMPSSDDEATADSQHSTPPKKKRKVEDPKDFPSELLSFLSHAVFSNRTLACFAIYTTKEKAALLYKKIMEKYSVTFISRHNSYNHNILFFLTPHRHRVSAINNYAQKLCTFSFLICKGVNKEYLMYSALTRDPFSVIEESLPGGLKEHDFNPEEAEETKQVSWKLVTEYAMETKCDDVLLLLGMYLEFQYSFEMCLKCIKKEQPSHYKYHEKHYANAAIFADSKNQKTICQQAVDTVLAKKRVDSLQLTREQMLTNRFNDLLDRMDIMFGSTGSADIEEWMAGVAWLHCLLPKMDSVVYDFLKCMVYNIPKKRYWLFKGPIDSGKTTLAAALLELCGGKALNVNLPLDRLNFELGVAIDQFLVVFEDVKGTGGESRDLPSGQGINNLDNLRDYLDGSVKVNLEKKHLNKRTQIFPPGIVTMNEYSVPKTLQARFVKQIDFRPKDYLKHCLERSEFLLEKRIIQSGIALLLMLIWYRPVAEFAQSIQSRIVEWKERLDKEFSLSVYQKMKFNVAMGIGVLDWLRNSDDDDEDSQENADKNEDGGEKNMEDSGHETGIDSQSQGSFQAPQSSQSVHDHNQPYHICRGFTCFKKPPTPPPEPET

SUMO-activating enzyme [7] = biological target: T2, SUMO-activating enzyme (Homo sapiens, UniProt Q9UBT2); assay: SUMOylation inhibitor hit validation, confirmation, SUMOylation inhibitor project, biochemical, AlphaScreen (AID 2018); type: functional
T2 sequence (Q9UBE0 whole entry): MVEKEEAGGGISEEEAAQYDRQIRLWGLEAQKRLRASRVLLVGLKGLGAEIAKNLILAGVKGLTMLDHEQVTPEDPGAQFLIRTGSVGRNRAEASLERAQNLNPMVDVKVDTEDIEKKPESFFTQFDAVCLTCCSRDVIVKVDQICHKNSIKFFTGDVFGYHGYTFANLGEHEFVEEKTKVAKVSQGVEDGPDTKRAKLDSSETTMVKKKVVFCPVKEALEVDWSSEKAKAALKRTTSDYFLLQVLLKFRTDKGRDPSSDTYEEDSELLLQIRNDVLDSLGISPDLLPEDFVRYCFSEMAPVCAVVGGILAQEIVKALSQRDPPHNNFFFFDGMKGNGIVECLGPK
T2 sequence (Q9UBT2 whole entry): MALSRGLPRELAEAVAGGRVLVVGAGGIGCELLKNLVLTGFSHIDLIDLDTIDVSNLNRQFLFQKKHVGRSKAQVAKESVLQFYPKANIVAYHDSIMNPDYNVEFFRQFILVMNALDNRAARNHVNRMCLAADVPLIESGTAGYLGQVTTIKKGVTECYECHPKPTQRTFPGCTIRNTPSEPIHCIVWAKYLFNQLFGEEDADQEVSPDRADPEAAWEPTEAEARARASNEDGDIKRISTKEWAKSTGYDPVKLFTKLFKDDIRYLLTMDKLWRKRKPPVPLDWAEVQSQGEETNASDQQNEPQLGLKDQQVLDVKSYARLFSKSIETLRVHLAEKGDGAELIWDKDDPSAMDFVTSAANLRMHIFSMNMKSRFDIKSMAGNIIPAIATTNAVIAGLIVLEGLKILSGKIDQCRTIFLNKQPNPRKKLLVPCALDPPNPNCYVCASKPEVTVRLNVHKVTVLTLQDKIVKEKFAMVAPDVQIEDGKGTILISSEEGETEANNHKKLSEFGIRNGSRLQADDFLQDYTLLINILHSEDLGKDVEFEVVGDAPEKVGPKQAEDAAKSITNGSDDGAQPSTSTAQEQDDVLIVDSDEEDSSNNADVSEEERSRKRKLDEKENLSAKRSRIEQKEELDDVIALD

[8] = THP-1 cell cytotoxicity, dose response, cytotoxicity control for Vif-APOBEC3G degradation inhibitor project, THP-1 cells (AID 1117359); type: functional; details: Human immunodeficiency virus 1, THP-1
SUMO-activating enzyme [9] = biological target: T2, SUMO-activating enzyme; assay: inhibitors of in vitro SUMOylation cascade, primary screen, biochemical, HTRF, uHTS (AID 2006); type: protein-complex assay
[10] = biological target: T3, Dual specificity protein phosphatase 6 (Rattus norvegicus, UniProt Q64346)
T3 sequence (Q64346 whole entry): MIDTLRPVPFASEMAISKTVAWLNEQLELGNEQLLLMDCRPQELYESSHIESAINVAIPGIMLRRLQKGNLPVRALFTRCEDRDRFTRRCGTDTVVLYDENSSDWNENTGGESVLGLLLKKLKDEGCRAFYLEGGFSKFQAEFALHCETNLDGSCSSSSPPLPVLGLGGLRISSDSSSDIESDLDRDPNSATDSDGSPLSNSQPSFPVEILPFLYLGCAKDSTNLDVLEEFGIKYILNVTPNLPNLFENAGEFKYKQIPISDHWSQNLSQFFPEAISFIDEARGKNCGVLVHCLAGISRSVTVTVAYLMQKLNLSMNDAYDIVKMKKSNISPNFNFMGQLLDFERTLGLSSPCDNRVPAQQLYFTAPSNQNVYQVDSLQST

[11] = biological target: Glyceraldehyde-3-phosphate dehydrogenase (Homo sapiens, UniProt P04406)
[12] = biological target: T3, Dual specificity protein phosphatase 6; type: functional
[13] = biological target: T4, Tyrosine-protein phosphatase non-receptor type 7 (Homo sapiens, UniProt P35236); type: functional
T4 sequence (P35236 whole entry): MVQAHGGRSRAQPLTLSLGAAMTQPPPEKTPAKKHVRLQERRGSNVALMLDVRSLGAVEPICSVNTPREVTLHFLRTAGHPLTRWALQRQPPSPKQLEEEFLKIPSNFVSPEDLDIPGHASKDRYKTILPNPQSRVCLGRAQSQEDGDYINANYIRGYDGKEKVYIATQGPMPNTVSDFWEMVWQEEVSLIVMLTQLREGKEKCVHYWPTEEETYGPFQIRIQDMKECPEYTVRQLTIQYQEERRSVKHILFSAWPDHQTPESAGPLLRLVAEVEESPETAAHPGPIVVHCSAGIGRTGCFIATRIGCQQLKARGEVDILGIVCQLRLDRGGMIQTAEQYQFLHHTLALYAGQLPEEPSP

Genome polyprotein = Genome polyprotein (dengue virus type 2, UniProt P29990); assay: Dengue-2 NS5 methyltransferase inhibitors, primary screen, biochemical, confirmation dose response (AID 588689); type: functional
[14] = biological target: T5, Microphthalmia-associated transcription factor (Homo sapiens, UniProt O75030); assay: TRPM1 promoter luciferase signal decrease, dose response, MITF inhibitor project, cell-based, SK-MEL-5, cherry-picked, set 3 (AID 493073); type: functional
T5 sequence (O75030 whole entry): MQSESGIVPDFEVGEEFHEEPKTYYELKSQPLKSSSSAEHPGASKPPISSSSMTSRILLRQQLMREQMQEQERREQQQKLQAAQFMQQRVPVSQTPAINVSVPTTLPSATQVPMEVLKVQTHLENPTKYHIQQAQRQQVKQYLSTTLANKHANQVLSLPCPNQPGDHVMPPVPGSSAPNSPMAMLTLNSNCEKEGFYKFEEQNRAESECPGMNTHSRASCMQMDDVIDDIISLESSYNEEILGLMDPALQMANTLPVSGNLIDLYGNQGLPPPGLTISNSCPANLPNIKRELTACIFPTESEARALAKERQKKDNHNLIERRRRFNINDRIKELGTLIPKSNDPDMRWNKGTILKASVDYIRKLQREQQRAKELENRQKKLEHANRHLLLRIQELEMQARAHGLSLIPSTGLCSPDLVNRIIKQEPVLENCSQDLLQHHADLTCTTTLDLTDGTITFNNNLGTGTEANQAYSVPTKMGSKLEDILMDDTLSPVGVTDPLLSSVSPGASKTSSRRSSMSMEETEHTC

[15] = biological target: Induced myeloid leukemia cell differentiation protein Mcl-1 (Homo sapiens, UniProt Q07820); type: functional
Sequence of Induced myeloid leukemia cell differentiation protein Mcl-1 (Q07820 whole entry): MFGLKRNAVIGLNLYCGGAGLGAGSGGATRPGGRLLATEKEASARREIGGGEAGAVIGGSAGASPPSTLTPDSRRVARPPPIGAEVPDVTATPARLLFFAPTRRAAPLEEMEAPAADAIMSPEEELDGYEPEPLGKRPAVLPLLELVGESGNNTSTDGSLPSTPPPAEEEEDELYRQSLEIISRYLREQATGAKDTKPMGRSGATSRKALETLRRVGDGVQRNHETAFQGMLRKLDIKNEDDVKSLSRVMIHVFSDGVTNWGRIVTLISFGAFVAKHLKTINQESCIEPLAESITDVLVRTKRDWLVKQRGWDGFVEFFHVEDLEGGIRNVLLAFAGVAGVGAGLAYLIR

[16] = biological target: T1, Heat shock factor protein 1; assay: HSF1 potentiators in luciferase reporter cells, confirmation, cell-based, NIH3T3, luminescence, dose retest (AID 435004); type: functional;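 further: stress induced by proteasome inhibitor MG132 added 30 min after compound; luciferase reporter driven by HSF1 response element in NIH3T3 cells; actives raise luminescence as potentiators of the MG132 stress response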
[17] = biological target: DNA (cytosine-5)-methyltransferase 1 (Homo sapiens, UniProt P26358); assay: DNMT1 methyltransferase inhibitors, confirmation, biochemical, fluorescent molecular beacon (AID 602386); type: functional
Vero [18] = assay: cells; type: functional; details: Chlorocebus sabaeus
Vero [19] = assay: Vero cell cytotoxicity, cytotoxicity control for flavivirus capping enzyme inhibitors (AID 588742); type: functional; details: Chlorocebus sabaeus
Mu-type opioid receptor = Mu-type opioid receptor (Homo sapiens, UniProt P35372); type: functional, cell-based;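 further: U2OS cells with beta-arrestin recruitment to OPRM1 by beta-gal complementation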
Streptokinase A = biological target: T6, Streptokinase A (Streptococcus pyogenes serotype M1, UniProt P10520); assay: S. pyogenes streptokinase expression inhibitors, potency, dose response, plasminogen activation absorbance, OD405 (AID 1914); type: functional, Streptococcus pyogenes M1 GAS;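 further: secreted streptokinase activity via plasminogen activation per viability signal from cell pellet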
T6 sequence (P10520 whole entry): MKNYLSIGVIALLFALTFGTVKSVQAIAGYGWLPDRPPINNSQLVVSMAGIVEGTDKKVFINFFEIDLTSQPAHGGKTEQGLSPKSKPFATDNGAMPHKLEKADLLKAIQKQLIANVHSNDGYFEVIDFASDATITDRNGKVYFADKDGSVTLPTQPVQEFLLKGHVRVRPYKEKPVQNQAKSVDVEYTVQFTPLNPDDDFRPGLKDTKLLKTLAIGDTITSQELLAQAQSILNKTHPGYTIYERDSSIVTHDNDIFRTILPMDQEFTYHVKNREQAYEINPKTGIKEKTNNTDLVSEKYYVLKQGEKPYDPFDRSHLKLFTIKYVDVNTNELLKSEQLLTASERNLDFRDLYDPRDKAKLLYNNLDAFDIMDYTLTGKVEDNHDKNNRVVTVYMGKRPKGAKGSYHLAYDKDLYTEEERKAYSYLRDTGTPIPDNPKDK

[20] = biological target: 5-hydroxytryptamine receptor 2A (Mus musculus, UniProt P35363); type: functional, cell-based;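 further: CHO-K1 cells with tagged receptor and beta-arrestin; agonist potency measured as compound-induced activation of the receptor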
Sequence of 5-hydroxytryptamine receptor 2A (P35363 whole entry): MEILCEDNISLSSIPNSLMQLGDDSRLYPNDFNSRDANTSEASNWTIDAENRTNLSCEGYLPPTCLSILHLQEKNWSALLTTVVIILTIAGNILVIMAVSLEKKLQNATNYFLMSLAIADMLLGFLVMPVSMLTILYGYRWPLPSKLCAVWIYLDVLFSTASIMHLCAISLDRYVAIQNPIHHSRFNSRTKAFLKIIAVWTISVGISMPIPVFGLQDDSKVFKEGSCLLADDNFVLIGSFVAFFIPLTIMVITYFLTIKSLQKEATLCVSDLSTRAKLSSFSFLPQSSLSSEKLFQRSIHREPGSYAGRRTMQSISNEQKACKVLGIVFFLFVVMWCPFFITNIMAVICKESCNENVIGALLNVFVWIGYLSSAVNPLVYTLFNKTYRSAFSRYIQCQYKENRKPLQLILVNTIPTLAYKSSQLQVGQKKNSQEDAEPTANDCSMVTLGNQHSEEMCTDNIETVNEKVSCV

Streptococcus = assay: Group A Streptococcus viability loss, dose response, counter-screen for streptokinase expression inhibitor project, luminescence, BacTiterGlo (AID 1915); type: functional, organism-based;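 further: potency for reduction of bacterial viability or growth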
[21] = system: Streptococcus sp. 'group A'; assay: growth inhibition of control SK(-) GAS strain, dose response, counter-screen for streptokinase expression inhibitor project, luminescence, kanamycin, BacTiterGlo, confirmation (AID 1900); type: functional, organism-based
[22] = biological target: Acyl-homoserine lactone acylase PvdQ (Pseudomonas aeruginosa (strain LESB58), UniProt Q9I194); assay: P. aeruginosa PvdQ acylase inhibitors, dose response, biochemical, fluorescence, plate reader and imaging, cherry-picks (AID 493231)
Sequence of Acyl-homoserine lactone acylase PvdQ (Q9I194 24-193 limits assumed): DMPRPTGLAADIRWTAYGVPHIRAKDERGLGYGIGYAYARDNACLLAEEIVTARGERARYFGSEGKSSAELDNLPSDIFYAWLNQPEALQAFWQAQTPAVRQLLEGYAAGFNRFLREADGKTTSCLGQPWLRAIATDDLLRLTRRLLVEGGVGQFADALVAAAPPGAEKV
Sequence of Acyl-homoserine lactone acylase PvdQ (Q9I194 217-762 limits assumed): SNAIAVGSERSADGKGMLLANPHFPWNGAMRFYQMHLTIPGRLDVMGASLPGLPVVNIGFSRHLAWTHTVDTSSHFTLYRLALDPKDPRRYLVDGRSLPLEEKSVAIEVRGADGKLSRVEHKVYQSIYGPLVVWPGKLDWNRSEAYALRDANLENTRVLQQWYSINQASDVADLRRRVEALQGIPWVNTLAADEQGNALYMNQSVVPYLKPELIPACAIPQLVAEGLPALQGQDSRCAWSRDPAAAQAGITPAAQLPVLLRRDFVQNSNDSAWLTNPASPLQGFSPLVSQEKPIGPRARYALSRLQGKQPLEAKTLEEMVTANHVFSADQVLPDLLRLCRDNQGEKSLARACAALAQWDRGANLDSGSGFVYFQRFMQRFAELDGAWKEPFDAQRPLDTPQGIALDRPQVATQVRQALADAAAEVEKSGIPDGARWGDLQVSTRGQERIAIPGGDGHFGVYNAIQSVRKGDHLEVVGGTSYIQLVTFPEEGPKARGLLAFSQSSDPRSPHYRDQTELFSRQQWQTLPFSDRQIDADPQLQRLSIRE

Estrogen receptor beta = Estrogen receptor beta (Homo sapiens, UniProt Q92731); assay: ERβ–SRC-3 coactivator interaction inhibitors, confirmation, orthogonal assay, biochemical, ELISA, streptavidin-HRP readout (AID 1060)
Sequence of Estrogen receptor beta (Q92731 whole entry): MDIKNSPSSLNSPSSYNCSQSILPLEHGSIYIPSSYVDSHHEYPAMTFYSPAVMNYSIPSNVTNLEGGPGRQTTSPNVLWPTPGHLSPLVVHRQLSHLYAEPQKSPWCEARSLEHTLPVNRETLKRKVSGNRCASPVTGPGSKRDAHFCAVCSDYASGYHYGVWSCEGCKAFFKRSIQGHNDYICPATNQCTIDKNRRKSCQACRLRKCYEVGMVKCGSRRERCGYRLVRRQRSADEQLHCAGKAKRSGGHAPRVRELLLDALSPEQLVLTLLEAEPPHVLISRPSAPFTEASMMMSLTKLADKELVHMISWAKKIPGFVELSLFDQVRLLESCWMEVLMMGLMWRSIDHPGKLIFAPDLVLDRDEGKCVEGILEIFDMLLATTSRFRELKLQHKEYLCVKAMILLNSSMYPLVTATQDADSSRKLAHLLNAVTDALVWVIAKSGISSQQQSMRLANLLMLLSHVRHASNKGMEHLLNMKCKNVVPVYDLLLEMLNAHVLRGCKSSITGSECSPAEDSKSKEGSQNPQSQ

Leucine aminopeptidase = biological target: T7, Leucine aminopeptidase (Plasmodium falciparum 3D7, UniProt Q8IL11); assay: P. falciparum M17LAP inhibitors, primary screen, biochemical, fluorogenic H-Leu-NHMec substrate, 1536-well (AID 1619); type: functional
T7 sequence (Q8IL11 whole entry): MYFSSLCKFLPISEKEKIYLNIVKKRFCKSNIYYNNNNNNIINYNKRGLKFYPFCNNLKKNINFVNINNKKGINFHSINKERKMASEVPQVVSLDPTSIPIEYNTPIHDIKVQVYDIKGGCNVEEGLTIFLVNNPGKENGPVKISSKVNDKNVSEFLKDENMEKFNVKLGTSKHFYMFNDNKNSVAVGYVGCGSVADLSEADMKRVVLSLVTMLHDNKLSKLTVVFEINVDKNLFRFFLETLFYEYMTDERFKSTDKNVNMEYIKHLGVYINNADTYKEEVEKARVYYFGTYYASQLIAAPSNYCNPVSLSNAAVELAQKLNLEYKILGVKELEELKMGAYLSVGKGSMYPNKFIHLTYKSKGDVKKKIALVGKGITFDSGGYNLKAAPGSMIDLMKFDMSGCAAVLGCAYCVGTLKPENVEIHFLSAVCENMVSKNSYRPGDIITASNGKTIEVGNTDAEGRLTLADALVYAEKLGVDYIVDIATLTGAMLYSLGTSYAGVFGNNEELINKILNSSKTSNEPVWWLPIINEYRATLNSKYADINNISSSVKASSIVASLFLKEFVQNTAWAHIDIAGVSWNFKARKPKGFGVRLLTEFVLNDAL

ORF 73 = ORF 73 (Human herpesvirus 8, UniProt O40947); assay: inhibitors of C-LANA binding to LBS DNA, dose response, biochemical, fluorescence polarization, cherry-picked samples (AID 504725); design: species or system Human gammaherpesvirus 8;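 further: fluorescence polarization of a labeled DNA duplex reporting LANA DNA binding; potency is for inhibitors that block LANA binding to the DNA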

Sequence of G-protein coupled receptor 55 (Q9Y2T6 whole entry): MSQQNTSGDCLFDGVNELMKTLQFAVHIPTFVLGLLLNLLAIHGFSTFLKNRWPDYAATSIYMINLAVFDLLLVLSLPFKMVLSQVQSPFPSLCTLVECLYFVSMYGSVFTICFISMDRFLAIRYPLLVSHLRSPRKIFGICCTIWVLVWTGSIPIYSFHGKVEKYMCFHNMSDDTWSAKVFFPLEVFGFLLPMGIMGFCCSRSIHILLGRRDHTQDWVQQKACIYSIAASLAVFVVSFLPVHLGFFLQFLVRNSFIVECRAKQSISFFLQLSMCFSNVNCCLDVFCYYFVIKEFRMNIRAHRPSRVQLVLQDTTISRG

## CCOC(=O)c1c(-c2ccccc2)oc2ccc(O)c(CN3CCN(C)CC3)c12
[1]
  IC50: 6.85 µM (active)

## Cc1oc(-c2cccs2)nc1CSCC(=O)N1CCC2(CC1)OCCO2
[2]
  AC50: 256 µM (active)

## Cc1cc(C)c2c(c1)/C(=N/NS(=O)(=O)c1ccc(Br)cc1)CCC2
[3]
  EC50: > 195 µM (not active)
X-box-binding protein 1
  Absolute IC50 (XBP1): 10 µM

## CSCC[C@H](NC(=O)c1ccc(Cl)c(S(=O)(=O)N2CCCC2)c1)c1nc2ccccc2[nH]1
[4]
  IC50: 4.93 µM (active)
[5]
  IC50: 5.06 µM (active)

## C=CCn1c(N)cc(=O)nc1SCC(=O)Nc1cccc2ccccc12
[6]
  IC50: > 64 µM (inactive)

## O=C1N=C(Nc2ccc(O)cc2)S/C1=C\C=C\c1ccco1
Large T antigen
  IC50: 31.5 µM (active)
SUMO-activating enzyme [7]
  IC50: 2.59 µM (active)
[8]
  CC50: 2.84 µM (active)
SUMO-activating enzyme [9]
  IC50: 30.8 µM (active)

## Cc1ccc2c(c1)NC(C(=O)O)NS2(=O)=O (stereo not drawn)
[10]
  IC50: 52.5 µM (active)
[11]
  IC50: > 100 µM (not active)
[12]
  IC50: 56.9 µM (active)
[13]
  IC50: 3.35 µM (active)

## O=C1NC(=S)NC(=O)C1=Cc1cccn1-c1ccc(O)cc1
Large T antigen
  IC50: 30.3 µM (active)
Genome polyprotein
  IC50: 34.2 µM (active)
[14]
  AC50: 11.4 µM (active)
[15]
  IC50: 4.45 µM (active)
[16]
  EC50: 10.6 µM (active)
SUMO-activating enzyme [7]
  IC50: 7.4 µM (active)
[17]
  IC50: 4.82 µM (active)
Vero [18]
  CC50: 23 µM (active)
SUMO-activating enzyme [9]
  IC50: 21.9 µM (active)
Vero [19]
  CC50: 34.8 µM (active)

## Cc1ccc(Nc2nc(N)nc(CN3CCN(c4ccccc4)CC3)n2)cc1Cl
Mu-type opioid receptor
  EC50: 92.5 µM (inactive)
Streptokinase A
  EC50: > 150 µM (not active)
[20]
  EC50: 76.1 µM (inactive)
X-box-binding protein 1
  Absolute IC50 (XBP1): 10 µM
Streptococcus
  EC50: 111 µM (active)
[21]
  EC50: 8.53 µM (active)

## N#Cc1cccnc1Nc1ccc(Cl)cc1
[22]
  AC50: 14.2 µM (active)

## COc1cc(C2c3sc(=O)[nH]c3SC3C4CCC(C4)C23)ccc1O (stereo not drawn)
[1]
  IC50: 0.672 µM (active)

## CCCOc1ccc(C(=O)CCC(=O)OCC(=O)Nc2cccc(S(N)(=O)=O)c2)cc1
[22]
  AC50: > 100 µM (inactive)

## Cc1cccc(C)c1NC(=O)CSc1nnc(-c2ccco2)c(-c2ccco2)n1
Estrogen receptor beta
  IC50: 2 µM (not active)
[15]
  IC50: 4.92 µM (active)
Leucine aminopeptidase
  IC50: 18.9 µM (active)
ORF 73
  AC50: 160 µM (active)
